Among the test systems are NCI-H522 lung; IGROV1 ovarian; MALME-3M melanoma; U251 CNS; ACHN renal; SNB-75 CNS; CAKI-1 renal; SK-MEL-2 melanoma; HCT-15 colon.
Test in all cases: NCI-60 cell line screen, 48 h

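Five compound concentrations were applied to cells in 96-well plates for 48 hours; endpoints were derived by simple linear interpolation of the resulting dose-response curve. Abbreviation: GI50, concentration required for 50% inhibition of growth. TGI denotes the concentration required for complete inhibition of growth.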 Where only a bound is given, the exact number is not on record here.

Turning to `COc1ccc(C(=O)c2cc(OC)c(OC)c(OC)c2)cc1`, the TGI is 0.238 µM with NCI-H522 lung; over 100 µM with IGROV1 ovarian; over 100 µM in the experiment with MALME-3M melanoma; 9.74 µM in the experiment with U251 CNS; over 91.3 µM in the experiment with ACHN renal; 0.988 µM with SNB-75 CNS. Moreover, the TGI in the experiment on CAKI-1 renal is over 88.1 µM; in the experiment with SK-MEL-2 melanoma, over 100 µM.
For `NC(=O)NNCc1ccccc1`, the TGI in the experiment on NCI-H522 lung, in the experiment on IGROV1 ovarian, in the experiment on U251 CNS, in the experiment on ACHN renal, in the experiment on HCT-15 colon and with CAKI-1 renal was over 100 µM in each case. Besides, in the experiment with SK-MEL-2 melanoma, the TGI is over 100 µM.
In the case of `CCCCCCCCCCCCNC(C)=O`, the TGI came out at 27.2 µM in the experiment with NCI-H522 lung; 34.5 µM in the experiment on MALME-3M melanoma; 30.1 µM with U251 CNS; 70 µM in the experiment on ACHN renal; 33.1 µM in the experiment with HCT-15 colon; 55.8 µM in the experiment with SNB-75 CNS. Besides, the TGI in the experiment on CAKI-1 renal stood at 39.3 µM; in the experiment with SK-MEL-2 melanoma, 28.1 µM.
Turning to `C[N+](C)(C)CC1CCCC/C1=N\OC(=O)c1ccccc1` (configuration not stated), the TGI in the experiment with NCI-H522 lung, in the experiment on IGROV1 ovarian, in the experiment on MALME-3M melanoma, in the experiment on U251 CNS, with ACHN renal and with HCT-15 colon was over 100 µM in each case. In addition, the TGI in the experiment with SNB-75 CNS and in the experiment with CAKI-1 renal was over 100 µM throughout.
Regarding `COc1cc(/C=C/c2ccncc2)cc(OC)c1OC`, the TGI in the experiment on NCI-H522 lung, in the experiment with IGROV1 ovarian, with MALME-3M melanoma, in the experiment on U251 CNS, with ACHN renal and in the experiment on HCT-15 colon was over 100 µM in each case. Besides, the TGI with SNB-75 CNS and in the experiment on CAKI-1 renal was over 100 µM throughout.
Take `COc1ccccc1NC(=O)c1sc2nc3c(cc2c1N)C(=O)CCC3`: the GI50 was 586 nM in the experiment with NCI-H522 lung; 8150 nM in the experiment on IGROV1 ovarian; 1750 nM in the experiment on MALME-3M melanoma; 4640 nM with U251 CNS; 6200 nM with ACHN renal; 2360 nM in the experiment with SNB-75 CNS. For the same compound, in the experiment with SK-MEL-2 melanoma, the GI50 is 1810 nM. In addition, the TGI in the experiment on NCI-H522 lung is 38.7 µM; in the experiment on IGROV1 ovarian it was over 100 µM; in the experiment with MALME-3M melanoma, over 100 µM; in the experiment on U251 CNS, over 100 µM; in the experiment with ACHN renal, over 100 µM; with SNB-75 CNS it was 9.42 µM. Further, in the experiment with SK-MEL-2 melanoma, the TGI was over 100 µM.
For `CCN(CC)CCOCC[C@H]1CC[C@H]2[C@@H]3[C@H](C)Cc4cc(OS(N)(=O)=O)ccc4[C@H]3CC[C@]12C`, the GI50 with NCI-H522 lung is 1520 nM; in the experiment with IGROV1 ovarian, 2410 nM; in the experiment on U251 CNS, 1180 nM; with ACHN renal, 1950 nM; in the experiment on HCT-15 colon, 1660 nM; with SNB-75 CNS it was 1240 nM. Further, the GI50 was 1360 nM in the experiment on CAKI-1 renal and 2320 nM with SK-MEL-2 melanoma. In addition, the TGI in the experiment with NCI-H522 lung came to 3.39 µM; in the experiment on IGROV1 ovarian, 8 µM; in the experiment on U251 CNS, 2.59 µM; in the experiment on ACHN renal, 5.33 µM; in the experiment on HCT-15 colon, 4.72 µM; in the experiment with SNB-75 CNS, 3.13 µM. Moreover, the TGI in the experiment on CAKI-1 renal came out at 2.97 µM; with SK-MEL-2 melanoma it was 4.45 µM.
On to `COc1ccc(OC)c(/C=N/NC(=O)Cc2csc3nc(-c4ccc(Br)cc4)cn23)c1`, for which the GI50 was 22700 nM in the experiment with NCI-H522 lung; 4020 nM with IGROV1 ovarian; 13800 nM with U251 CNS; 16900 nM with ACHN renal; 7420 nM in the experiment on HCT-15 colon; 23900 nM in the experiment on SNB-75 CNS. Moreover, the GI50 in the experiment with CAKI-1 renal was 12600 nM; in the experiment on SK-MEL-2 melanoma it was 89700 nM. For the same compound, the TGI is over 100 µM with NCI-H522 lung; 26.7 µM with IGROV1 ovarian; 31.4 µM with U251 CNS; 34.5 µM in the experiment with ACHN renal; 65.1 µM in the experiment on HCT-15 colon; 65.4 µM with SNB-75 CNS. Further, the TGI is 34.2 µM with CAKI-1 renal and over 100 µM in the experiment on SK-MEL-2 melanoma.
As to `Nc1ccc2c(c1)C(=O)C(=O)c1c-2nc2ccccn12`, the GI50 in the experiment with IGROV1 ovarian was 1520 nM; with MALME-3M melanoma, 271 nM; in the experiment with U251 CNS it was 1280 nM; in the experiment with ACHN renal, 1220 nM; with HCT-15 colon, 427 nM; in the experiment with SNB-75 CNS it was 1040 nM. For the same compound, the GI50 in the experiment on SK-MEL-2 melanoma is 1680 nM. The TGI worked out at 3.55 µM in the experiment with IGROV1 ovarian; 0.572 µM with MALME-3M melanoma; 2.58 µM in the experiment on U251 CNS; 2.46 µM with ACHN renal; 1.87 µM with HCT-15 colon; 2.28 µM with SNB-75 CNS. The TGI with SK-MEL-2 melanoma turned out to be 3.7 µM.
With `COc1ccccc1/C=C(\C#N)c1ccccc1`, the TGI in the experiment with NCI-H522 lung is 44.7 µM; in the experiment on IGROV1 ovarian it was over 100 µM; in the experiment with U251 CNS, over 100 µM; with ACHN renal, over 100 µM; in the experiment on HCT-15 colon it was 67.4 µM; with SNB-75 CNS, 60 µM. Moreover, the TGI is over 100 µM in the experiment with CAKI-1 renal and 94.8 µM in the experiment with SK-MEL-2 melanoma.
As to `CCSCC1CC(O)(c2ccccc2)C(c2ccccc2)C(c2ccc(Cl)cc2)O1` (configuration not stated), the GI50 is 2010 nM with IGROV1 ovarian; 1580 nM in the experiment with MALME-3M melanoma; 1630 nM in the experiment with U251 CNS; 1810 nM in the experiment with ACHN renal; 1690 nM with HCT-15 colon; 1750 nM in the experiment with SNB-75 CNS. Also, the GI50 with CAKI-1 renal was 1490 nM; with SK-MEL-2 melanoma, 1730 nM. Also, the TGI in the experiment on IGROV1 ovarian amounted to 4.88 µM; with MALME-3M melanoma it was 3.18 µM; in the experiment on U251 CNS it was 3.32 µM; with ACHN renal, 3.68 µM; in the experiment with HCT-15 colon, 4.5 µM; in the experiment on SNB-75 CNS, 4.72 µM. Moreover, the figures for the TGI in the experiment with CAKI-1 renal and in the experiment with SK-MEL-2 melanoma were 4.06 µM and 3.5 µM, respectively.
As for `O=C1[C@@H]2C(c3ccccc3Br)=NO[C@@H]2C(=O)N1c1ccc(Cc2ccc(N3C(=O)[C@H]4C(c5ccccc5Br)=NO[C@H]4C3=O)cc2)cc1`, the TGI with IGROV1 ovarian, in the experiment with MALME-3M melanoma, in the experiment with U251 CNS, with ACHN renal, with HCT-15 colon and in the experiment with SNB-75 CNS was over 100 µM throughout. Besides, the TGI in the experiment with CAKI-1 renal and with SK-MEL-2 melanoma was over 100 µM in each case.
On to `CN1N=CSC12C(=O)N(c1ccc(Cl)cc1)C(=O)N2c1ccc(Cl)cc1` (configuration not stated), for which the TGI in the experiment on NCI-H522 lung was 5.73 µM; in the experiment with IGROV1 ovarian it was over 100 µM; with MALME-3M melanoma, over 100 µM; with U251 CNS, 53.6 µM; in the experiment on SNB-75 CNS it was 16.5 µM; in the experiment on CAKI-1 renal it was over 100 µM.
